Results from ChEMBL document CHEMBL1133400, “Synthesis and pharmacology of a novel pyrrolo[2,1,5-cd] indolizine (NNC 45-0095), a high affinity non-steroidal agonist for the estrogen receptor” (Bioorg Med Chem Lett, 2000).

Columns and labels:
[1] = system: Ishikawa; test: Stimulation of endometrial activity in Ishikawa human endometrial adenocarcinoma cells; type: functional, cell-based
[2] = system: Ishikawa; test: Percentp stimulation of alkaline phosphate activity in Ishikawa human endometrial adenocarcinoma cells relative to Moxestrol; type: functional
[3] = biological target: Estrogen receptor (Mus musculus, UniProt O08537+P19785); test: Uterotrophic activity in immature mouse; type: functional, tissue-based, Uterus
[4] = biological target: Estrogen receptor (Mus musculus) (UniProt O08537+P19785); test: Percent maximal relative agonism for uterotrophic activity in immature mouse model; type: functional
[5] = biological target: Estrogen receptor (Homo sapiens, UniProt Q92731+P03372); test: Binding affinity for estrogen receptor of rabbit uterine […] muscle tissue; type: protein assay, Oryctolagus cuniculus; settings: target entry is the homologue from another species

Chain of Estrogen receptor (Mus musculus) (O08537 whole entry, looked up): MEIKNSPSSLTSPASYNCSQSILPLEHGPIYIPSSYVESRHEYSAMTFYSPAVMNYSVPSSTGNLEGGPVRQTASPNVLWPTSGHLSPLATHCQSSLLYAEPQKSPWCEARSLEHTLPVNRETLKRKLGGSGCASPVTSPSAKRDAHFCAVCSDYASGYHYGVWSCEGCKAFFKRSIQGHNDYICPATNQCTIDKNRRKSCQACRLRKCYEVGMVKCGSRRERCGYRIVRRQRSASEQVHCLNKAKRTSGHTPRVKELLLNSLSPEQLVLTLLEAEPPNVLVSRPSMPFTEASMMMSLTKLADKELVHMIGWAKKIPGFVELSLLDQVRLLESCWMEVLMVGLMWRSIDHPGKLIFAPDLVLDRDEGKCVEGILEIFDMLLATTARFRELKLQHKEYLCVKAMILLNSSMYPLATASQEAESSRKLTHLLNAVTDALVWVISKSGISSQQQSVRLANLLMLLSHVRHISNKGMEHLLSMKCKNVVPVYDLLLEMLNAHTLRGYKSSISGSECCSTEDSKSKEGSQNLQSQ
Chain of Estrogen receptor (Mus musculus) (P19785 whole entry, looked up): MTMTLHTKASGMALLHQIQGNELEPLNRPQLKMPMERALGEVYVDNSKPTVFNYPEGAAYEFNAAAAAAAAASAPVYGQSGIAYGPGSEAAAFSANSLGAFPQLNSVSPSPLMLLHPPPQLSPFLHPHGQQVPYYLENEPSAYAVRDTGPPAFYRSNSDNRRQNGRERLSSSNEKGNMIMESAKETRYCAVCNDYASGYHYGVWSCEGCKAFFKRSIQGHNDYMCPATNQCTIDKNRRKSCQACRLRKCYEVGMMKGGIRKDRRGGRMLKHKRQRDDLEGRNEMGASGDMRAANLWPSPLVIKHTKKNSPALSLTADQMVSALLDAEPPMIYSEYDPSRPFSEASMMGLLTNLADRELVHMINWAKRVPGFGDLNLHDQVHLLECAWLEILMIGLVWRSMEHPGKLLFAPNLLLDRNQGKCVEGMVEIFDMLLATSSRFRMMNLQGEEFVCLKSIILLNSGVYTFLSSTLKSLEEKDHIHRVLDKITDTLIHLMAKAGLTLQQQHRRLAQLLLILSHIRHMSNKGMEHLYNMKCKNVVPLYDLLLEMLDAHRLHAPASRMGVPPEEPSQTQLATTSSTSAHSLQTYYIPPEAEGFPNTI

Row | Compound | EC50 [1] [nM] | Emax [2] [%] | EC50 [3] [nM/g] | Activity [4] [%] | IC50 [5] [nM]
1 | CCc1c(-c2ccc(O)cc2)c2ccc3cccc1n32 | 13 | 105 | 0.96 | 76 | 
2 | C#C[C@]1(O)CC[C@H]2C3CCc4cc(O)ccc4[C@H]3[C@@H](OC)C[C@@]21C (single isomer, unassigned) [MOXESTROL] | 0.1 | 100 |  |  | 2.5
